The source of these data is patent US5939527A, “Tetrapeptides as antitumor agents” (BASF Aktiengesellschaft, priority 1996, dated 1999).

In data set [1] the test system is P388 lymphocytic leukemia (PS system) cell line. The note with it: cited from earlier work.
The test system of data set [2] is four different human lymphoma cell lines. The note with it: cited from earlier work.
Data set [3] deals with Human breast tumors (MX-1). As to the kind of experiment: In vivo activity, MX-1 human breast tumor xenograft in athymic nude mice. The note with it: subcutaneous injection, 10, 20 or 30 mg/kg, three doses per week, days 5-23. As for the experimental part:
Compounds of this invention were further tested in pre-clinical assays for in vivo activity which is indicative of clinical utility. Such assays were conducted with nude mice into which tumor tissue, preferably of human origin, had been transplanted (xenografted), as is well known in this field. Test compounds were evaluated for anti-tumor efficacy following administration to the xenograft-bearing mice.
Human breast tumors (MX-1) which had been grown in athymic nude mice were transplanted into new recipient mice, using tumor fragments which were about 50 mg in size. The day of transplantation was designated as day 0. The mice were divided into four groups of 5-10 mice each. An untreated group served as the control. Three groups were treated by subcutaneous injection of compound 1, with each group receiving three doses per week of 30, 20 or 10 mg/kg body weight. Doses were administered on days 5, 7, 9, 12, 14, 16, 19, 21 and 23 post post-implantation.
Tumor diameters and body weights were measured twice weekly. Tumor volumes were calculated using the diameters measured with Vernier calipers, and the formula
(length×width^2)/2=mm^3 of tumor volume
Mean tumor volumes are calculated for each treatment group, and T/C values determined for each group relative to the untreated control tumors.

In data set [4] the test system is HT-29 colon carcinoma cells. Type of data set: cell-based. The note with it: HT-29 cells, 48 hours incubation, MTT; read-out: IC50 (concentration giving a T/C of 50% growth inhibition).
For data set [5] the following is noted: synthetic Dolastatin 10; cited from earlier work.

Regarding Dolastatin 15, in data set [1], the “growth inhibition of P388 cell line” value is on record as “inhibits the growth”. In data set [2], the “inhibition of growth of human lymphoma cell lines” value is given as “effectively inhibit”.

Regarding `CO[C@H](CC(=O)N1CCC[C@H]1C(=O)Nc1nccs1)[C@H](C(C)C)N(C)C(=O)[C@@H](NC(=O)[C@H](C(C)C)N(C)C)C(C)C` [Compound 1, (3R,4S)-4-[N-(N,N-dimethyl-L-valyl-L-valyl)-N-methylamino]-3-methoxy-5-methyl-hexanoyl prolyl-thiazolyl(2)-amide], in data set [3], the “inhibition of tumor growth (tumor volume versus post-implantation time)” value is on record as “significant dose-dependent inhibition of tumor growth”. In data set [4], the IC50 was 60 nM.

In the case of Dolastatin 10, the “solubility in aqueous systems” value in data set [5] is given as “poor solubility”. Besides, the “inhibition of growth of human lymphoma cell lines” value in data set [2] is “effectively inhibit”.
